The record followed here is patent US8048884B2, “Substituted piperazinyl pyrazines and pyridines as 5-HT7 receptor antagonists” (Eli Lilly and Company, priority 2007, dated 2011).

The test system of test [1] is male Harlan Sprague-Dawley rats. Description: Animal model of dural plasma protein extravasation (PPE). The test is classed as in vivo, rat. The text has this:
The dural plasma protein extravasation model is an established model for migraine. The ability of a test compound to reduce extravasation of plasma proteins into the dura under assay conditions is considered indicative of the compound's ability to reduce or prevent the dural inflammation thought to be symptomatic of migraine. (see Johnson, K. W., et al., Neuroreport, 8 (1997) 2237-2240.)
To assay compounds for their ability to reduce or prevent dural plasma protein extravasation, male Harlan Sprague-Dawley rats (250-350 g) are anesthetized with sodium pentobarbital (65 mg/kg, i.p.) and placed in a stereotaxic frame (David Kopf Instruments) with the incisor bar set at −2.5 mm. Following a midline sagittal scalp incision, 2 pairs of bilateral holes are drilled through the skull (3.2 mm posterially, 1.8 and 3.8 mm laterally, all coordinates referenced to bregma). […]
The amount of FITC-BSA for each sample is quantified with a fluorescence microscope (Zeiss) equipped with a grating monochromator, a spectrophotometer, and a computer driven stage. Fluorescence measurements are taken at 25 points in a 5×5 grid in 500 μm steps on each dural sample with an excitation wavelength of approximately 490 nm and emission intensity measured at approximately 535 nm. The mean and standard deviation of the 25 measurements are determined. […]

The target in the next test is T1, 5-HT5 (Homo sapiens, UniProt P47898).
T1 construct: expressed in transfected cells
The experiment in a line: Radioligand binding assay, 5-HT5 subtype. The method, then:
(§1) [^3H] […] The reactions are incubated at room temperature for 3 hr. and then counted in a Trilux Microbeta™ scintillation counter to detect receptor-bound radioligand. Binding data is analyzed by computer-assisted 4 parameter fit analysis (ID Business Solutions Ltd, Guildford, Surrey, UK). […]
(§2) Affinity for other serotonin receptor subtypes as well as for alpha 1 & 2 adrenergic receptors can readily be determined by modification of the above described radioligand receptor binding assay using membranes derived from cells stably expressing the desired receptor subtype including the 5-HT1A, 5-HT1B, and 5-HT1D subtypes, as well as the 5-HT2A, 5-HT2B, 5-HT2C, 5-HT4, 5-HT5, and 5-HT6 receptor subtypes. […]

A further test addresses T2, 5-HT1A (Homo sapiens, UniProt P08908).
T2 construct: expressed in transfected cells
T2 sequence (P08908 1-422): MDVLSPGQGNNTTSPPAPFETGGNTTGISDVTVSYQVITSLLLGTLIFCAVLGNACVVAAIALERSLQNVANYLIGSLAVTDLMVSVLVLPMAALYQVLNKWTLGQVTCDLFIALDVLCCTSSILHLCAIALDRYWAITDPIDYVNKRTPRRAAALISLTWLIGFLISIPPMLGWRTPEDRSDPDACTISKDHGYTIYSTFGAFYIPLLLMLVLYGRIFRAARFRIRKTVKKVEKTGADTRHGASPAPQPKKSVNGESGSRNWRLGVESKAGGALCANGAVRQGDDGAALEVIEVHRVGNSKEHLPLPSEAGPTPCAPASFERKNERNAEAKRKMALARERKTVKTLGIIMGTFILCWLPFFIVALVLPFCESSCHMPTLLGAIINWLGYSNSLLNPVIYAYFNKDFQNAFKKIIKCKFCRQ
The experiment in a line: Radioligand binding assay, 5-HT1A subtype. The method, then: as §1, §2

T1 sequence (P47898 whole entry, species assumed): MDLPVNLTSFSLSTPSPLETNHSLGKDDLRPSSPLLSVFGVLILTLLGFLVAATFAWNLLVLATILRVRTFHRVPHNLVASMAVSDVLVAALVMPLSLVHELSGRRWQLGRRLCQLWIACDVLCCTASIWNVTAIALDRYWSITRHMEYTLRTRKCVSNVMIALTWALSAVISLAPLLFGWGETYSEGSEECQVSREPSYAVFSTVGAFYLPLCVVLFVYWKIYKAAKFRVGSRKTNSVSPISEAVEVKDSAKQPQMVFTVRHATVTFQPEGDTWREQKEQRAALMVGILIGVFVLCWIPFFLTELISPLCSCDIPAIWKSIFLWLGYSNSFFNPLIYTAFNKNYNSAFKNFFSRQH

Consider `COCc1ccc(-c2nccnc2N2CCN(CCN(C)S(=O)(=O)c3cnn(C)c3)CC2)cc1.Cl` [Example 25, 1-Methyl-1H-pyrazole-4-sulfonic acid {2-[3′-(4-methoxymethyl-phenyl)-2,3,5,6-tetrahydro-[1,2′]bipyrazinyl-4-yl]-ethyl}-methyl-amide hydrochloride], for which the “ratio of extravasation, stimulated side over unstimulated side” value in test [1] (at ID100 of 1 mg/Kg, saline controls about 2.0) is “about 1.1”. The molecule also showed an ID100 in test [1] (rat dural plasma protein extravasation, route not given) of 1 mg/kg. Moreover, the Ki on 5-HT5 worked out at 3.32 µM; on 5-HT1A it was 2070 nM.

By Ki is commonly meant a dissociation constant, usually derived from enzyme kinetics or from competition with a known ligand. Lower therefore signals tighter binding.
